Reference: patent publication US4278686A, “Carbapenum derivatives, a process for their preparation and their use in pharmaceutical compositions and intermediates” (Beecham Group Limited, priority 1978, dated 1981)
Read-outs that look alike come from different tables or passages of the source.

Legend:
Type in all cases: cell-based
[1] = test system: Staphylococcus aureus 1517; test: minimum inhibitory concentration, Staphylococcus aureus 1517 (DST agar+10% horse blood)
Description: (§1) The minimum inhibitory concentrations (MIC) of the compound (e54) was determined using a standard DST agar+10% horse blood substrate. The tests used an undiluted inoculum of bacteria. […]
(§2) The minimum inhibitory concentrations (MIC) of this compound was determined using a standard DST agar+10% horse blood substrate.
(§3) The minimum inhibitory concentrations (MIC) of this compound was determined using a standard DST agar+10% horse blood substrate. The tests used an undiluted inoculum of bacteria.

[2] = test system: Pseudomonas aeruginosa A; test: minimum inhibitory concentration, Pseudomonas aeruginosa A (DST agar+10% horse blood)
Description: as §1, §2, §3

[3] = test system: Proteus vulgaris WO91; test: minimum inhibitory concentration, Proteus vulgaris WO91 (DST agar+10% horse blood)
Description: as §1, §2, §3

[4] = test system: Klebsiella aerogenes A; test: minimum inhibitory concentration, Klebsiella aerogenes A (DST agar+10% horse blood)
Description: as §1, §2, §3

[5] = test system: Staphylococcus aureus Russell; test: minimum inhibitory concentration, Staphylococcus aureus Russell (DST agar+10% horse blood)
Description: as §1, §2, §3

[6] = test system: Shigella sonnei MB 11967; test: minimum inhibitory concentration, Shigella sonnei MB 11967 (DST agar+10% horse blood)
Description: as §1, §2, §3

[7] = test system: Proteus rettgeri WM16; test: minimum inhibitory concentration, Proteus rettgeri WM16 (DST agar+10% horse blood); details: Providencia rettgeri
Description: as §1, §2, §3

[8] = test system: Serratia marcescens US20; test: minimum inhibitory concentration, Serratia marcescens US20 (DST agar+10% horse blood)
Description: as §1, §2, §3

[9] = test system: Proteus mirabilis C977; test: minimum inhibitory concentration, Proteus mirabilis C977 (DST agar+10% horse blood)
Description: as §1, §2, §3

[10] = test system: Escherichia coli 0111; test: minimum inhibitory concentration, Escherichia coli 0111 (DST agar+10% horse blood)
Description: as §1, §2, §3

[11] = test system: Bacillus subtilis A; test: minimum inhibitory concentration, Bacillus subtilis A (DST agar+10% horse blood); details: undiluted inoculum
Description: as §1, §2, §3

[12] = test system: Streptococcus pneumoniae CN33; test: minimum inhibitory concentration, Streptococcus pneumoniae CN33 (DST agar+10% horse blood); details: undiluted inoculum
Description: as §1, §2, §3

[13] = test system: E. coli ESS; test: minimum inhibitory concentration, E. coli ESS (DST agar+10% horse blood); details: Escherichia coli
Description: as §1, §2, §3

[14] = test system: Salmonella typhimurium CT10; test: minimum inhibitory concentration, Salmonella typhimurium CT10 (DST agar+10% horse blood); details: Salmonella enterica
Description: as §1, §2, §3

[15] = test system: Escherichia coli JT 39; test: minimum inhibitory concentration, Escherichia coli JT 39 (DST agar+10% horse blood)
Description: as §1, §2, §3

[16] = test system: Staphylococcus aureus Oxford; test: minimum inhibitory concentration, Staphylococcus aureus Oxford (DST agar+10% horse blood)
Description: as §1, §2, §3

[17] = test system: Proteus morganii I580; test: minimum inhibitory concentration, Proteus morganii I580 (DST agar+10% horse blood); details: Morganella morganii, Proteus morganii I580, DST agar+10% horse blood, read-out: MIC
Description: The minimum inhibitory concentrations (MIC) of the compound (e54) was determined using a standard DST agar+10% horse blood substrate. The tests used an undiluted inoculum of bacteria.
Sodium (5R,6S)-3-(2-acetamidoethylthio)--6-ethyl-7-oxo-1-azabicyclo[3.2.0]-hept-2-ene-2-carboxylate [drawing 60] p-Methoxycarbonylbenzyl (5R,6S)-3-(2-acetamidoethylthio)-6-ethyl-7-oxo-1-azabicyclo[3.2.0]hept-2-ene-2-carboxylate (e58) (18 mg) was added to the cathodic compartment of an H-type divided two-compartment electrochemical cell, with a mercury cathode and a platinum anode. The cell contained degassed 0.1 M n-Bu4 NI in dimethylformamide as electrolyte. The volume of the catholyte was about 15 ml [glacial acetic acid (about 10 mg) added] and the volume of the anolyte was about 8 ml. A potentiostat was employed to fix the potential of the cathode at -1.9 V with respect to the standard calomel electrode, and the initial current, about 56 mA, fell to about 15 mA after about 15 min. The catholyte was removed from the cell and the solvent was evaporated in vacuo. The residue was taken up in CH2 Cl2 (10 ml) and washed with water (10 ml). The aqueous phase was separated and washed with CH2 Cl2. The aqueous phase, containing the tetrabutylammonium salt corresponding to (e63) was passed through an Amberlite IR 120 (Na form) column (17×1 cm) and the eluate was reduced to low volume by evaporation in vacuo. The residue was passed through a Biogel P-2 column, to yield fractions containing sodium (5R,6S)-3-(2-acetamidoethylthio)-6-ethyl-7-oxo-1-azabicyclo[3.2.0]hept-2-ene-2-carboxylate (e63) having λmax 298 nm. The minimum inhibitory concentrations (MIC) of this compound was determined using a standard DST agar+10% horse blood substrate.
Sodium (5R,6S)-3-[(E)-2-acetamidoethenylthio]-6-ethyl-7-oxo-1-azabicyclo[3.2.0]hept-2-ene-2-carboxylate [drawing 68] p-Methoxycarbonylbenzyl (5R,6S)-3-[(E)-2-acetamidoethenylthio]-6-ethyl-7-oxo-1-azabicyclo[3.2.0]hept-2-ene-2-carboxylate (e72) (64 mg) in solution in 0.1 M (n-C4 H9)4 NBF4 in dry DMF was added to the cathodic compartment of a divided cylindrical electrochemical cell, with a mercury cathode and platinum anode. The volume of electrolyte in the cathodic compartment was about 25 ml, and in the anodic compartment about 10 ml. Acetic acid (12 mg) was added to the cathodic compartment and ethanol (250 mg) was added to the anodic compartment. The cell was degassed by passing argon for 30 min. The potentiostat was engaged to maintain the potential of the cathode at -1.9 V w.r.t. standard calomel electrode. The initial current (40 mA) fell to about 5 mA after 25 min. The solvent was removed from the catholyte by evaporation in vacuo and the residual oil was taken up in CH2 Cl2 (20 ml) and extracted with water (15 ml) containing sodium tetrafluoroborate (100 mg). The aqueous extract was washed with CH2 Cl2 and then passed down an Amberlite 1R 120 column (1×20 cm) in the sodium form. The volume of the eluate was reduced to about 5 ml by evaporation in vacuo and loaded onto a Biogel P-2 column (18×3 cm). Elution with water yielded fractions containing sodium (5R,6S)-3-[(E)-2-acetamidoethenylthio]-6-ethyl-7-oxo-1-azabicyclo[3.2.0]hept-2-ene-2-carboxylate (e73) λmax 308 nm. The minimum inhibitory concentrations (MIC) of this compound was determined using a standard DST agar+10% horse blood substrate.
Sodium (5R,6R)-3-[(E)-2-acetamidoethenylthio]-6-(1-benzylthioethyl)-7-oxo-1-azabicyclo[3.2.0]hept-2-ene-2-carboxylate [drawing 87] The least polar crystalline isomer of the ester (e93) (40 mg) obtained in Example 70 was added to a mixture of 5% Pd on C (60 mg) in 20% aqueous dioxan (5 ml) which had been prehydrogenated for 0.5 h. Hydrogenation was continued for 4 h and the mixture was filtered through Celite after adding NaHCO3 (7 mg) and water (10 ml). The solution was concentrated to a volume of about 10 ml and was then washed with ethyl acetate (3×30 ml). […]

[18] = test system: Citrobacter freundii E8; test: minimum inhibitory concentration, Citrobacter freundii E8 (DST agar+10% horse blood)
Description: as §1, §2, §3

[19] = test system: Streptococcus pyogenes CN10; test: minimum inhibitory concentration, Streptococcus pyogenes CN10 (DST agar+10% horse blood)
Description: as §1, §2, §3

[20] = test system: Enterobacter cloacae N1; test: minimum inhibitory concentration, Enterobacter cloacae N1 (DST agar+10% horse blood)
Description: as §1, §2, §3

[21] = test system: Streptococcus faecalis I; test: minimum inhibitory concentration, Streptococcus faecalis I (DST agar+10% horse blood); details: Enterococcus faecalis
Description: as §1, §2, §3

[22] = Enterobacter cloacae N1, undiluted inoculum

## CSC(C)[C@H]1C(=O)N2C(C(=O)[O-])=C(S/C=C/NC(C)=O)C[C@H]12.[Na+] (single isomer, unassigned) [e101]
[1]; undiluted inoculum
  MIC: 12.5 µg/mL
[2]; undiluted inoculum
  MIC: 50 µg/mL
[3]; undiluted inoculum
  MIC: 5 µg/mL
[4]; undiluted inoculum
  MIC: 2.5 µg/mL
[5]; undiluted inoculum
  MIC: 0.5 µg/mL
[6]; MB11967, undiluted inoculum
  MIC: 1.2 µg/mL
[7]; undiluted inoculum
  MIC: 5 µg/mL
[8]; undiluted inoculum
  MIC: 5 µg/mL
[9]; undiluted inoculum
  MIC: 12.5 µg/mL
[10]; undiluted inoculum
  MIC: 2.5 µg/mL
[11]
  MIC: 1.2 µg/mL
[12]
  MIC: 0.1 µg/mL
[13]; undiluted inoculum
  MIC: 1.2 µg/mL
[14]; undiluted inoculum
  MIC: 1.2 µg/mL
[15]; JT39, undiluted inoculum
  MIC: 2.5 µg/mL
[16]; undiluted inoculum
  MIC: 0.5 µg/mL
[17]; undiluted inoculum
  MIC: 12.5 µg/mL
[18]; undiluted inoculum
  MIC: 5 µg/mL
[19]; undiluted inoculum
  MIC: 0.2 µg/mL
[20]; [22]
  MIC: 2.5 µg/mL
[21]; undiluted inoculum
  MIC: 12.5 µg/mL

## CC[C@H]1C(=O)N2C(C(=O)[O-])=C(S/C=C/NC(C)=O)C[C@H]12.[Na+] [e54, sodium (5R,6R)-3-[(E)-2-acetamidoethenylthio]-6-ethyl-7-oxo-1-azabicyclo[3.2.0]hept-2-ene-2-carboxylate]
[1]; undiluted inoculum
  MIC: 12.5 µg/mL
[2]; undiluted inoculum
  MIC: > 50 µg/mL
[3]; undiluted inoculum
  MIC: 25 µg/mL
[4]; undiluted inoculum
  MIC: 3.1 µg/mL
[5]; undiluted inoculum
  MIC: 0.4 µg/mL
[6]; MB11967, undiluted inoculum
  MIC: 3.1 µg/mL
[7]; undiluted inoculum
  MIC: 25 µg/mL
[8]; undiluted inoculum
  MIC: 12.5 µg/mL
[9]; undiluted inoculum
  MIC: 25 µg/mL
[10]; undiluted inoculum
  MIC: 3.1 µg/mL
[11]
  MIC: 0.8 µg/mL
[12]
  MIC: 0.1 µg/mL
[13]; undiluted inoculum
  MIC: 0.4 µg/mL
[14]; undiluted inoculum
  MIC: 3.1 µg/mL
[15]; JT39, undiluted inoculum
  MIC: 3.1 µg/mL
[16]; undiluted inoculum
  MIC: 0.4 µg/mL
[17]; undiluted inoculum
  MIC: 25 µg/mL
[18]; undiluted inoculum
  MIC: 12.5 µg/mL
[19]; undiluted inoculum
  MIC: 0.2 µg/mL
[20]; [22]
  MIC: 25 µg/mL
[21]; undiluted inoculum
  MIC: 25 µg/mL

## CC[C@@H]1C(=O)N2C(C(=O)[O-])=C(SCCNC(C)=O)C[C@H]12.[Na+] [e63, sodium (5R,6S)-3-(2-acetamidoethylthio)-6-ethyl-7-oxo-1-azabicyclo[3.2.0]hept-2-ene-2-carboxylate]
[1]
  MIC: 10 µg/mL
[2]
  MIC: > 40 µg/mL
[3]
  MIC: 5 µg/mL
[4]
  MIC: 1.2 µg/mL
[5]
  MIC: 0.6 µg/mL
[6]; MB11967
  MIC: 2.5 µg/mL
[7]
  MIC: 10 µg/mL
[8]
  MIC: 10 µg/mL
[9]
  MIC: 10 µg/mL
[10]
  MIC: 2.5 µg/mL
[13]
  MIC: 1.2 µg/mL
[14]
  MIC: 2.5 µg/mL
[15]; JT39
  MIC: 10 µg/mL
[16]
  MIC: 0.6 µg/mL
[17]
  MIC: 40 µg/mL
[18]
  MIC: 2.5 µg/mL
[19]
  MIC: 0.1 µg/mL
[20]; Enterobacter cloacae, Enterobactor cloacae N1
  MIC: 20 µg/mL
[21]
  MIC: 40 µg/mL
